From patent US12122780B2, “Pyrimidinyl group-containing tricyclic compound serving as c-Met inhibitor” (JIANGSU AOSAIKANG PHARMACEUTICAL CO., LTD., priority 2019, dated 2024)
Where a name gives a salt, the structure may show the parent alone.

Legend:
[1] = Pharmacokinetics of single intravenous and oral administration in mice; format: in vivo; settings: for Exposure AUC / Vd / clearance / half-life: intravenous injection, 1 mg/kg; for Vd / clearance / half-life / bioavailability: mouse, plasma; for Vd: read-out: Apparent volume of distribution; for clearance: read-out: Clearance rate; for half-life: read-out: Half-life (T1/2) (converted); for bioavailability / Exposure AUC0-last / Maximum blood concentration / Peak time: oral administration, 10 mg/kg
Experimental: The objective of this experiment was to study the pharmacokinetics (PK) of the test compound in different species after a single intravenous and a single oral administration.
After intravenous injection or oral administration, animal blood samples were collected and the actual blood collection time was recorded. Immediately after collection, blood samples were transferred to labeled centrifuge tubes containing K2-EDTA and subsequently centrifuged and processed to obtain plasma. Plasma was transferred to pre-cooled centrifuge tubes, snap-frozen in dry ice and stored in an ultra-low temperature refrigerator at −70±10° C. until LC-MS was performed.
Plasma drug concentration data of the compounds were processed using pharmacokinetic software with a non-compartmental model. The peak concentration (Cmax) and time to peak (Tmax), as well as the quantifiable end time, were obtained directly from the blood concentration-time diagram. The log-linear trapezoidal method was used to calculate the following pharmacokinetic parameters: half-life (T1/2), apparent volume of distribution (Vdss) and clearance rate (Cl), and the area under the time-plasma concentration curve from 0 points to the end time (AUC0-last), the initial concentration (C0).

[2] = test system: Hs746T cells; assay: Hs746T cell proliferation experiment (CellTiter-Glo); format: cell-based; settings: Homo sapiens, 96 h, 4 days
Experimental: DMEM medium was purchased from Gibco, and fetal bovine serum was purchased from Hyclone. Hs746T cell line was purchased from ATCC. Envision multi-label analyzer (PerkinElmer).
Hs746T cells were seeded in a 384-well plate, 50 μL of cell suspension per well, which contained 1500 Hs746T cells. The cell plate was placed in a carbon dioxide incubator for overnight culture.
The compounds to be tested were 3-fold diluted into 9 concentrations with Tecan, double-duplicate well experiment was set, and the final compound concentrations added to the 384-well cell plate were 1000 nM to 0.15 nM. The cell plate was cultured in a carbon dioxide incubator for 4 days.
After 4 days, 25 μL of Promega CellTiter-Glo reagent was added to each well of this cell plate, and incubated at room temperature for 10 minutes to stabilize the luminescence signal. Readings were taken using a PerkinElmer Envision multi-label analyzer.
The action curves of the compounds were automatically fitted using Xlfit software and the values of IC50 were calculated, High control was the values of DMSO-treated wells and Low control was the values of cell-free medium wells.

[3] = target: c-Met enzyme (Homo sapiens (Human), UniProt P08581); assay: c-Met enzyme activity inhibition (Promega c-Met Kinase Enzyme System, ADP-Glo); format: biochemical; settings: 10 μM ATP, 60 min, 30° C.
Sequence of c-Met enzyme (P08581 956-1390): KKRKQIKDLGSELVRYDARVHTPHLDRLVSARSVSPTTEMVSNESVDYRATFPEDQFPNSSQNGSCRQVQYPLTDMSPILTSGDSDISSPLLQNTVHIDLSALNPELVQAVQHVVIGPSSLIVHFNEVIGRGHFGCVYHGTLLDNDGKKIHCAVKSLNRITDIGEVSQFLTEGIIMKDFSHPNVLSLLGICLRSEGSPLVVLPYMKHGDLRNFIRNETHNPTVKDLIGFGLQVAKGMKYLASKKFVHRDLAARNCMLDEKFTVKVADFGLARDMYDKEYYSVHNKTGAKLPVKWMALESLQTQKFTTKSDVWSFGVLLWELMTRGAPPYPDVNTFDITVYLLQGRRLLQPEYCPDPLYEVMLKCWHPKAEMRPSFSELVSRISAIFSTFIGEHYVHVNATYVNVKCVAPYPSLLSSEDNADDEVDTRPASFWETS
Experimental: To detect the inhibitory effect of the compounds on c-Met enzyme activity.
The c-Met Kinase Enzyme System was purchased from Promega. Envision multi-label analyzer (PerkinElmer).
The kinase buffer in the kit was used to dilute the enzyme, substrate, ATP and inhibitor.
The compound to be tested was diluted 5-fold to the eighth concentration with a discharge gun, i.e., from 50 μM to […], with a final DMSO concentration of 5%, and double duplicate wells experiment was set. 1 μL of each concentration gradient of the inhibitor, 2 μL of c-Met enzyme (4 ng), 2 μL of a mixture of the substrate and ATP (10 μM ATP, 0.2 μg/μL poly E4Y1) were added to the microplate, and the final concentration gradient of the compound of 10 μM was diluted to 0.13 nM. The reaction system was placed at 30° C. and the reaction was carried out for 60 minutes. When the reaction was completed, 5 μL of ADP-Glo reagent was added to each well and the reaction was carried out at 30° C. for another 40 minutes, when the reaction was completed, 10 μL of kinase detection reagent was added to each well, then the reaction was carried out at 30° C. for still another 30 minutes, chemiluminescence was read by the PerkinElmer Envision multi-label analyzer with an integration time of 0.5 seconds.
Using the equation (Sample-Min)/(Max-Min)*100% to convert the original data to the inhibition rate, the IC50 value can be obtained by curve fitting with four parameters (obtained by log(inhibitor) vs. response in GraphPad Prism—Variable slope mode).

[4] = test system: human gastric cancer Hs746T xenograft tumor; assay: In vivo drug efficacy, human gastric cancer Hs746T xenograft tumor in nude mice; design: species or system BALB/c nude mice; settings: for TGI (tumor growth inhibition rate) / TRTV/CRTV (relative tumor proliferation rate T/C): after 20 days; for Tumor volume: n = 6
Experimental: BALB/c nude mice, female, 6-8 weeks old, weighing about 18-22 grams, animals were raised in SPF-class animal rooms in IVC (independent air supply system, constant temperature and humidity) cages (3 per cage). All cages, bedding and water were disinfected before use. All animals had free access to standard certified commercial laboratory diets. 0.2 mL (5×10^6 cells) of Hs746T cell suspension (with matrix gel, volume ratio 1:1) was subcutaneously inoculated on the right back of each mouse, and a total of 55 mice were inoculated. When the average tumor volume reached 160 mm^3, a random stratified grouping method was adopted according to the tumor volume and animal body weight to start grouping administration. The test compound was orally administered daily, the two doses of hydrochloride of compound 25 were 3 mg/kg and 6 mg/kg, respectively, and the dose of hydrochloride of compound 39 was 3 mg/kg. The tumor diameter was measured with vernier calipers twice a week. The calculation formula of tumor volume was: V=0.5a×b^2, a and b represented the long diameter and short diameter of the tumor, respectively. The anti-tumor efficacy of the compound was evaluated by TGI (%) or the relative tumor proliferation rate T/C (%). Relative tumor proliferation rate T/C (%)=TRTV/CRTV×100% (TRTV: average RTV in the treatment group; CRTV: average RTV in the negative control group). The relative tumor volume (RTV) was calculated according to the results of tumor measurement, the calculation formula was RTV=Vt/V0, wherein V0 was the tumor volume measured at the time of the grouping administration (i.e. D0), Vt was the tumor volume of the mice at a certain measurement, and TRTV and CRTV were taken on the same day. TGI (%) reflected the tumor growth inhibition rate. TGI (%)=[(1−(average tumor volume of a certain treatment group after administration-average tumor volume of the treatment group at the beginning of administration))/(average tumor volume of the solvent control group after the administration-average tumor volume of the solvent control group at the beginning of the administration)]×100%. Statistical analysis was performed based on the tumor volume (RTV) on the 20th day, and SPSS software was used for analysis.

[5] = 3 mg/kg oral daily, day 0, mean ± standard error
[6] = 3 mg/kg oral daily, day 2, mean ± standard error
[7] = 3 mg/kg oral daily, day 5, mean ± standard error
[8] = 3 mg/kg oral daily, day 9, mean ± standard error
[9] = 3 mg/kg oral daily, day 12, mean ± standard error
[10] = 3 mg/kg oral daily, day 16, mean ± standard error
[11] = 3 mg/kg oral daily, day 19, mean ± standard error
[12] = 3 mg/kg oral daily, day 20, mean ± standard error

| Exposure AUC [1] [µM·h] | Vd [1] [L/kg] | clearance [1] [mL/min/kg] | half-life [1] [h] | bioavailability [1] [%] | Exposure AUC0-last [1] [µM·h] | Maximum blood concentration [1] [nmol] | Peak time [1] [h] | IC50 [3] [nM] | SMILES | IC50 [2] [nM] | TGI (tumor growth inhibition rate) ([4]; 3 mg/kg oral daily) [%] | TRTV/CRTV (relative tumor proliferation rate T/C) ([4]; 3 mg/kg oral daily) [%] | Tumor volume [4, 5] [mm^3] | Tumor volume [4, 6] [mm^3] | Tumor volume [4, 7] [mm^3] | Tumor volume [4, 8] [mm^3] | Tumor volume [4, 9] [mm^3] | Tumor volume [4, 10] [mm^3] | Tumor volume [4, 11] [mm^3] | Tumor volume [4, 12] [mm^3] | further results |
| --- | --- | --- | --- | --- | --- | --- | --- | --- | --- | --- | --- | --- | --- | --- | --- | --- | --- | --- | --- | --- | --- |
| 1.8 | 7.27 | 15.8 | 6.73 | 82.3 | 14.9 | 1070 | 4 | 5.51 | CC(C)(O)CN1CCC(COc2cnc(-c3cccc(Cn4c(=O)ccn5c6cc(C#N)ccc6nc45)c3)nc2)CC1 [Hydrochloride of compound 39] | 1.5 | 106.7 | 0.7 | 160 ± 6 | 159 ± 8 | 125 ± 4 | 92 ± 3 | 82 ± 5 | 59 ± 7 | 26 ± 4 | 16 ± 3 | Tumor volume ([4]; 3 mg/kg oral daily, day 20, mean ± standard error, listed as hydrochloride of compound 39): 16 mm^3 |
| 2.08 | 5.41 | 14.7 | 4.51 | 27 | 5.56 | 541 | 2.33 | 2.75 | CC(C)N1CCC(COc2cnc(-c3cccc(Cn4c(=O)ccn5c6cc(C#N)ccc6nc45)c3)nc2)CC1 [Hydrochloride of compound 25] | 2.2 | 96.6 | 10.2 | 160 ± 7 | 179 ± 8 | 173 ± 12 | 151 ± 7 | 144 ± 6 | 139 ± 20 | 221 ± 49 | 234 ± 79 | Tumor volume ([4]; 3 mg/kg oral daily, day 20, mean ± standard error, listed as hydrochloride of compound 25): 234 mm^3; TGI (tumor growth inhibition rate) ([4]; 6 mg/kg oral daily): 106.7%; TRTV/CRTV (relative tumor proliferation rate T/C) ([4]; 6 mg/kg oral daily): 0.7%; Tumor volume ([4]; 6 mg/kg oral daily, day 0, mean ± standard error): 160 ± 7 mm^3; Tumor volume ([4]; 6 mg/kg oral daily, day 2, mean ± standard error): 146 ± 6 mm^3; Tumor volume ([4]; 6 mg/kg oral daily, day 5, mean ± standard error): 118 ± 6 mm^3; Tumor volume ([4]; 6 mg/kg oral daily, day 9, mean ± standard error): 89 ± 9 mm^3; Tumor volume ([4]; 6 mg/kg oral daily, day 12, mean ± standard error): 83 ± 9 mm^3; Tumor volume ([4]; 6 mg/kg oral daily, day 16, mean ± standard error): 55 ± 6 mm^3; Tumor volume ([4]; 6 mg/kg oral daily, day 19, mean ± standard error): 30 ± 4 mm^3; Tumor volume ([4]; 6 mg/kg oral daily, day 20, mean ± standard error): 17 ± 4 mm^3; Tumor volume ([4]; 6 mg/kg oral daily, day 20, mean ± standard error, listed as hydrochloride of compound 25): 17 mm^3 |
